We go through 27 compounds from US10793563B2, “GCN2 inhibitors and uses thereof” (Merck Patent GmbH, priority 2018, dated 2020).

Assay [1] concerns the target GCN2 kinase (Homo sapiens (Human), UniProt Q9P2K8). The assay is described as follows: GCN2 Enzyme Inhibition Assay (Transcreener ADP2 fluorescence polarization). Conditions: 280 μM ATP, 200 μM (RS)7 peptide, 4 nM GCN2, 25° C. The format is biochemical. In a few lines: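 Transcreener ADP2 fluorescence polarization detection of ADP from 4 nM GCN2 with (RS)7 substrate in 25 mM Tris-HCl pH 7.5, 50 mM NaCl, 10 mM MgCl2, 1 mM DTT. Compound pre-incubated with enzyme 10 min at 25 °C; reaction started by ATP, run 1 h at 25 °C. IC50 and Ki(app) by tight-binding fit.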

For assay [2], the target named is intracellular GCN2 (phosphorylation of the GCN2 substrate eIF2α) (Homo sapiens (Human), UniProt Q9P2K8). The assay is described as follows: GCN2 Cellular Inhibition Assay (AlphaScreen SureFire P-eIF2α Ser51, borrelidin-treated U2OS cells). Type of assay: cell-based. Conditions: 10 μM borrelidin, 1 h, phosphorylated eIF2α Ser51, read-out: GCN2 Biomarker (IC50). In a few lines: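 U2OS cells adhered overnight, then given compound (top 40 μM, 4-fold serial dilutions) plus 10 μM borrelidin for 1 h at 37 °C. Lysates assayed for eIF2α phospho-Ser51 by AlphaScreen SureFire; % inhibition versus borrelidin-only wells.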
intracellular GCN2 (phosphorylation of the GCN2 substrate eIF2α), sequence (Q9P2K8 whole entry): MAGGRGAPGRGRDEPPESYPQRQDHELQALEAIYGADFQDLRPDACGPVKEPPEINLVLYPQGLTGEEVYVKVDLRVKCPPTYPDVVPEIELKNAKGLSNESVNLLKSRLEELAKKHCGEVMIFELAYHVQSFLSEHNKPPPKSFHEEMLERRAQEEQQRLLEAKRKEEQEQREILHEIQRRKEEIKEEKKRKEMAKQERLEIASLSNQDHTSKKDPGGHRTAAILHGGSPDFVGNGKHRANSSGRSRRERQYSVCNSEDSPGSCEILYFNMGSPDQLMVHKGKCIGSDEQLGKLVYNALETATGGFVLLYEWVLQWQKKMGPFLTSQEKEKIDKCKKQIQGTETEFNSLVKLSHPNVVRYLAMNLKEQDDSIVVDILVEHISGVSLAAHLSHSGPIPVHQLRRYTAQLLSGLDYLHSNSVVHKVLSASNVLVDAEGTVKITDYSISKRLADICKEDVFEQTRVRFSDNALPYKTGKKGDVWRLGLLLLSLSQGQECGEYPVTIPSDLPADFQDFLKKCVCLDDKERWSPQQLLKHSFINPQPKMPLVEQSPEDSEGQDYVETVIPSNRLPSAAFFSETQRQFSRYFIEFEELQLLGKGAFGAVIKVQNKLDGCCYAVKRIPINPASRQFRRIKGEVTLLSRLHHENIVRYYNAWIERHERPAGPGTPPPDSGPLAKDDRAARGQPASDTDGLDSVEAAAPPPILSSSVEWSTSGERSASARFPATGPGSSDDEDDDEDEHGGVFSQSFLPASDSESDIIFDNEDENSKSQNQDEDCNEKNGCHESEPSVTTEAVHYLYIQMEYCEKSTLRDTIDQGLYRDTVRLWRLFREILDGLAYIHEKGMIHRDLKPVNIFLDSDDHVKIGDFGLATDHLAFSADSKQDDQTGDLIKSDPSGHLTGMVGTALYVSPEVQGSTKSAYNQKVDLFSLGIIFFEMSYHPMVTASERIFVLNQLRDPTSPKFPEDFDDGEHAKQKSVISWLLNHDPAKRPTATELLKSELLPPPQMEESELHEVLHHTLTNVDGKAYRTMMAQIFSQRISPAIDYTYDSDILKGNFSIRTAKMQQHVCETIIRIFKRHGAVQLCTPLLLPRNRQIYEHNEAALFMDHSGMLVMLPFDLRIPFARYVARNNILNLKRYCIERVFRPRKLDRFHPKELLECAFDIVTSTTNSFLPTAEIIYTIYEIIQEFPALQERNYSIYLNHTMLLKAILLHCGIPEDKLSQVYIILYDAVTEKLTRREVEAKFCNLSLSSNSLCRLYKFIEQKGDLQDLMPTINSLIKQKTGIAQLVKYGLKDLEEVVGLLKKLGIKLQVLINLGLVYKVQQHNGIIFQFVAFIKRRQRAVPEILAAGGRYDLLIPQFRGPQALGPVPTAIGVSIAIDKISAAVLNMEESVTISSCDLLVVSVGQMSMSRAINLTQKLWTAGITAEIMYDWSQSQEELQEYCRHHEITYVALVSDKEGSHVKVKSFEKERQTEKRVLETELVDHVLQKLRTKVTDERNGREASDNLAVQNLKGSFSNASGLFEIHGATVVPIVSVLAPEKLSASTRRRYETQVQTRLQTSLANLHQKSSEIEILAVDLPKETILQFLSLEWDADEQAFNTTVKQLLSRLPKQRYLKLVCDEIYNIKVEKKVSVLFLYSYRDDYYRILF

GCN2 kinase, sequence (Q9P2K8 whole entry): as above

Take `FC(F)(F)c1ccc2ncc(-c3nccc(N4CCC[C@H](C(F)(F)F)C4)n3)n2c1` [I-233, (S)-6-(trifluoromethyl)-3-(4-(3-(trifluoromethyl)piperidin-1-yl)pyrimidin-2-yl)imidazo[1,2-a]pyridine]: the concentration for half-maximal inhibition (IC50) in assay [1] was 100 to 1000 nM; in assay [2] it was 500 to 5000 nM.
On to `C[C@H]1C[C@H](c2cn[nH]c2)CN(c2nccc(-c3cnc4ccc(C5CC5)cn34)n2)C1` [I-235, 6-cyclopropyl-3-(2-((3S,5R)-3-methyl-5-(1H-pyrazol-4-yl)piperidin-1-yl)pyrimidin-4-yl)imidazo[1,2-a]pyridine], for which the IC50 in assay [1] was 10 to 100 nM; in assay [2], less than 500 nM.
`C[C@@H]1C[C@@H](c2cn[nH]c2)CN(c2nccc(-c3cnc4ccc(C5CC5)cn34)n2)C1` [I-236, 6-cyclopropyl-3-(2-((3R,5S)-3-methyl-5-(1H-pyrazol-4-yl)piperidin-1-yl)pyrimidin-4-yl)imidazo[1,2-a]pyridine]: the concentration for half-maximal inhibition (IC50) in assay [1] was 10 to 100 nM; in assay [2], less than 500 nM.
On to `O[C@@H]1C[C@H](O)CN(c2ccnc(-c3cnc4ccc(C(F)(F)F)cn34)n2)C1` [I-238, (3R,5S)-1-(2-(6-(trifluoromethyl)imidazo[1,2-a]pyridin-3-yl)pyrimidin-4-yl)piperidine-3,5-diol], for which the half-inhibitory concentration (IC50) in assay [1] lay within 10 to 100 nM; in assay [2], 500 to 5000 nM.
For the compound `OCC1CN(c2ccnc(-c3cnc4ccc(C(F)(F)F)cn34)n2)CCC1O` (stereo not drawn) [I-241, 3-(hydroxymethyl)-1-(2-(6-(trifluoromethyl)imidazo[1,2-a]pyridin-3-yl)pyrimidin-4-yl)piperidin-4-ol], the values for the concentration for half-maximal inhibition (IC50) in assay [1] and in assay [2] were 10 to 100 nM and 500 to 5000 nM, respectively.
For the compound `NS(=O)(=O)C1CCCN(c2ccnc(-c3cnc4ccc(C(F)(F)F)cn34)n2)C1` (stereo not drawn) [I-242, 1-(2-(6-(trifluoromethyl)imidazo[1,2-a]pyridin-3-yl)pyrimidin-4-yl)piperidine-3-sulfonamide], the IC50 in assay [1] was 10 to 100 nM; in assay [2], more than 5000 nM.
For the compound `C[C@@H]1C[C@H](N=S(C)(C)=O)CN(c2nccc(-c3cnc4cc(Cl)c(Cl)cn34)n2)C1` [I-244, (((3 S,5R)-1-(4-(6,7-dichloroimidazo[1,2-a]pyridin-3-yl)pyrimidin-2-yl)-5-methylpiperidin-3-yl)imino)dimethyl-λ6-sulfanone], the figures for the IC50 in assay [1] and in assay [2] were 10 to 100 nM and 500 to 5000 nM, respectively.
Take `NC(=O)C1CN(c2ccnc(-c3cnc4ccc(C(F)(F)F)cn34)n2)CCN1CCC(F)(F)F` (stereo not drawn) [I-245, 4-(2-(6-(trifluoromethyl)imidazo[1,2-a]pyridin-3-yl)pyrimidin-4-yl)-1-(3,3,3-trifluoropropyl)piperazine-2-carboxamide]: the values for the 50% inhibitory concentration (IC50) in assay [1] and in assay [2] were 10 to 100 nM and 500 to 5000 nM, respectively.
Consider `C[C@H]1CN(c2nccc(-c3cnc4ccc(Cl)cn34)n2)C[C@H](c2cn[nH]c2)O1` [I-246, (2S,6S)-4-(4-(6-chloroimidazo[1,2-a]pyridin-3-yl)pyrimidin-2-yl)-2-methyl-6-(1H-pyrazol-4-yl)morpholine], for which the half-maximal inhibitory concentration (IC50) was 10 to 100 nM in assay [1] and 500 to 5000 nM in assay [2].
Turning to `C[C@@H]1CN(c2nccc(-c3cnc4ccc(Cl)cn34)n2)C[C@@H](c2cn[nH]c2)O1` [I-251, (2R,6R)-4-(4-(6-chloroimidazo[1,2-a]pyridin-3-yl)pyrimidin-2-yl)-2-methyl-6-(1H-pyrazol-4-yl)morpholine], the 50% inhibitory concentration (IC50) in assay [1] fell in the range of 10 to 100 nM; in assay [2] it was 500 to 5000 nM.
With `C[C@@H]1C[C@@H](NC(=O)OC(C)(C)C)CN(c2ccnc(-c3cnc4ccc(Cl)cn34)n2)C1` [I-252, tert-butyl ((3R,5R)-1-(2-(6-chloroimidazo[1,2-a]pyridin-3-yl)pyrimidin-4-yl)-5-methylpiperidin-3-yl)carbamate], the concentration for half-maximal inhibition (IC50) fell in the range of 100 to 1000 nM in assay [1] and 500 to 5000 nM in assay [2].
In the case of `NC(=O)[C@@H]1CCCN(c2nc(-c3cnc4ccc(C(F)(F)F)cn34)ccc2F)C1` [I-260, (R)-1-(3-fluoro-6-(6-(trifluoromethyl)imidazo[1,2-a]pyridin-3-yl)pyridin-2-yl)piperidine-3-carboxamide], the IC50 in assay [1] was less than 10 nM; in assay [2], less than 500 nM.
For the compound `C[C@@H]1C[C@@H](c2cn[nH]c2)CN(c2nccc(-c3cnc4ccc(N5CC(F)(F)C5)cn34)n2)C1` [I-261, 6-(3,3-difluoroazetidin-1-yl)-3-(2-((3R,5S)-3-methyl-5-(1H-pyrazol-4-yl)piperidin-1-yl)pyrimidin-4-yl)imidazo[1,2-a]pyridine], the half-inhibitory concentration (IC50) in assay [1] was less than 10 nM; in assay [2], less than 500 nM.
`C[C@@H]1C[C@H](N=S(C)(C)=O)CN(c2ccnc(-c3cnc4ccc(C#N)cn34)n2)C1` [I-262, 3-(4-((3S,5R)-3-((dimethyl(oxo)-λ6-sulfaneylidene)amino)-5-methylpiperidin-1-yl)pyrimidin-2-yl)imidazo[1,2-a]pyridine-6-carbonitrile]: the results for the concentration for half-maximal inhibition (IC50) in assay [1] and in assay [2] were 10 to 100 nM and more than 5000 nM, respectively.
`NC(=O)C1CN(c2ccnc(-c3cnc4ccc(C(F)(F)F)cn34)n2)CCN1C1COC1` (stereo not drawn) [I-263, 1-(oxetan-3-yl)-4-(2-(6-(trifluoromethyl)imidazo[1,2-a]pyridin-3-yl)pyrimidin-4-yl)piperazine-2-carboxamide]: the results for the IC50 in assay [1] and in assay [2] were 10 to 100 nM and 500 to 5000 nM, respectively.
For the compound `CC1CN(c2ccnc(-c3cnc4ccc(Cl)cn34)n2)CC(c2cn[nH]c2)N1` (stereo not drawn) [I-266, 6-chloro-3-(4-(3-methyl-5-(1H-pyrazol-4-yl)piperazin-1-yl)pyrimidin-2-yl)imidazo[1,2-a]pyridine], the IC50 was less than 10 nM in assay [1] and less than 500 nM in assay [2].
`Cc1[nH]ncc1C1CN(c2ccnc(-c3cnc4ccc(Cl)cn34)n2)CC(C)N1` (stereo not drawn) [I-267, 6-chloro-3-(4-(3-methyl-5-(5-methyl-1H-pyrazol-4-yl)piperazin-1-yl)pyrimidin-2-yl)imidazo[1,2-a]pyridine]: the half-inhibitory concentration (IC50) in assay [1] lay in the range of 10 to 100 nM; in assay [2], 500 to 5000 nM.
Consider `Cc1[nH]ncc1C1CN(c2ccnc(-c3cnc4ccc(Cl)cn34)n2)CC(C)N1S(C)(=O)=O` (stereo not drawn) [I-268, 6-chloro-3-(4-(3-methyl-5-(5-methyl-1H-pyrazol-4-yl)-4-(methylsulfonyl)piperazin-1-yl)pyrimidin-2-yl)imidazo[1,2-a]pyridine], for which the IC50 in assay [1] was less than 10 nM; in assay [2] it was 500 to 5000 nM.
In the case of `C[C@@H]1C[C@H](N=S(C)(C)=O)CN(c2ccnc(-c3cnc4cc(Cl)c(Cl)cn34)n2)C1` [I-269, (((3 S,5R)-1-(2-(6,7-dichloroimidazo[1,2-a]pyridin-3-yl)pyrimidin-4-yl)-5-methylpiperidin-3-yl)imino)dimethyl-λ6-sulfanone], the IC50 lay within 10 to 100 nM in assay [1] and 500 to 5000 nM in assay [2].
As for `C[C@H]1CN(c2nccc(-c3cnc4cc(F)c(Cl)cn34)n2)C[C@@H](c2cn[nH]c2)O1` [I-270, (2S,6R)-4-(4-(6-chloro-7-fluoroimidazo[1,2-a]pyridin-3-yl)pyrimidin-2-yl)-2-methyl-6-(1H-pyrazol-4-yl)morpholine], the IC50 in assay [1] was less than 10 nM; in assay [2] it was less than 500 nM.
For the compound `C[C@@H]1CN(c2nccc(-c3cnc4cc(F)c(Cl)cn34)n2)C[C@H](c2cn[nH]c2)O1` [I-273, (2R,6S)-4-(4-(6-chloro-7-fluoroimidazo[1,2-a]pyridin-3-yl)pyrimidin-2-yl)-2-methyl-6-(1H-pyrazol-4-yl)morpholine], the half-inhibitory concentration (IC50) was less than 10 nM in assay [1] and less than 500 nM in assay [2].
In the same order, the values of `C[C@@H]1CN(c2nccc(-c3cnc4cc(F)c(Cl)cn34)n2)C[C@@H](c2cn[nH]c2)O1` [I-274, (2R,6R)-4-(4-(6-chloro-7-fluoroimidazo[1,2-a]pyridin-3-yl)pyrimidin-2-yl)-2-methyl-6-(1H-pyrazol-4-yl)morpholine] are 10 to 100 nM and 500 to 5000 nM.
On to `C[C@H]1CN(c2nccc(-c3cnc4cc(F)c(Cl)cn34)n2)C[C@H](c2cn[nH]c2)O1` [I-275, (2S,6S)-4-(4-(6-chloro-7-fluoroimidazo[1,2-a]pyridin-3-yl)pyrimidin-2-yl)-2-methyl-6-(1H-pyrazol-4-yl)morpholine], for which the IC50 was less than 10 nM in assay [1] and 500 to 5000 nM in assay [2].
In the case of `CC(=O)N1C(C)CN(c2ccnc(-c3cnc4ccc(Cl)cn34)n2)CC1c1cn[nH]c1` (stereo not drawn) [I-277, 1-(4-(2-(6-chloroimidazo[1,2-a]pyridin-3-yl)pyrimidin-4-yl)-2-methyl-6-(1H-pyrazol-4-yl)piperazin-1-yl)ethan-1-one], the concentration for half-maximal inhibition (IC50) in assay [1] lay in the range of 10 to 100 nM; in assay [2], 500 to 5000 nM.
In the same order, the values of `NC(=O)[C@H]1CCCN(c2nc(-c3cnc4ccc(C(F)(F)F)cn34)ncc2F)C1` [I-278, (S)-1-(5-fluoro-2-(6-(trifluoromethyl)imidazo[1,2-a]pyridin-3-yl)pyrimidin-4-yl)piperidine-3-carboxamide] are less than 10 nM and less than 500 nM.
In the same order, the values of `COc1cc(-c2cnc3ccc(Cl)cn23)nc(N2C[C@H](C)C[C@H](c3cn[nH]c3)C2)n1` [I-279, 6-chloro-3-(6-methoxy-2-((3R,5R)-3-methyl-5-(1H-pyrazol-4-yl)piperidin-1-yl)pyrimidin-4-yl)imidazo[1,2-a]pyridine] are 10 to 100 nM and 500 to 5000 nM.
`COc1cc(-c2cnc3ccc(Cl)cn23)nc(N2C[C@H](C)C[C@@H](c3cn[nH]c3)C2)n1` [I-280, 6-chloro-3-(6-methoxy-2-((3R,5S)-3-methyl-5-(1H-pyrazol-4-yl)piperidin-1-yl)pyrimidin-4-yl)imidazo[1,2-a]pyridine]: the figures for the IC50 in assay [1] and in assay [2] were 10 to 100 nM and less than 500 nM, respectively.
